Assay results reported in patent US9617286B2, “Fungicide N-[(trisubstitutedsilyl)methyl]-carboxamide derivatives” (BAYER INTELLECTUAL PROPERTY GMBH, priority 2011, dated 2017).

Tests used:
Uromyces appendiculatus = assay: In vivo preventive test on Uromyces appendiculatus (bean rust); details: bean plants, preventive spray, 500 ppm of active ingredient, grading 11 days after contamination
Protocol: Bean plants (“Saxa” variety), sown in starter cups on a 50/50 peat soil pozzolana substrate and grown at 24° C., are treated at the 2 leaf stage (9 cm height) by spraying with the active ingredient prepared as described above. Plants, used as controls, are treated with the mixture of acetone/tween/DMSO/water not containing the active material. After 24 hours, the plants are contaminated by spraying the leaves with an aqueous suspension of Uromyces appendiculatus spores (150 000 spores per mL). The spores are collected from infected plants and are suspended in water containing 2.5 mL/L of Tween 80 at 10%. The contaminated bean plants are incubated for 24 hours at 20° C. and at 100% relative humidity, and then for 10 days at 20° C. and at 70-80% relative humidity. Grading (% of efficacy) is carried out 11 days after the contamination, in comparison with the control plants.

Puccinia recondita = assay: In vivo preventive test on Puccinia recondita (brown rust on wheat); details: preventive spray, 500 ppm of active ingredient, grading 12 days after contamination
Protocol: Wheat plants (“Scipion” variety), sown in starter cups on a 50/50 peat soil pozzolana substrate and grown at 22° C., are treated at the 1 leaf stage (10 cm height) by spraying with the active ingredient prepared as described above. Plants, used as controls, are treated with the mixture of acetone/tween/DMSO/water not containing the active material. After 24 hours, the plants are contaminated by spraying the leaves with an aqueous suspension of Puccinia recondita spores (100 000 spores per mL). The spores are collected from an infected plant and are suspended in water containing 2.5 mL/L of Tween 80 at 10%. The contaminated wheat plants are incubated for 24 hours at 20° C. and at 100% relative humidity, and then for 10 days at 20° C. and at 70-80% relative humidity. Grading (% of efficacy) is carried out 12 days after the contamination, in comparison with the control plants.

[1] = log P by HPLC on reversed-phase column (C 18), EEC Directive 79/831 Annex V.A8; assay type: physicochemical; details: 40° C., 0.1% aqueous formic acid and acetonitrile, linear gradient 10% to 90% acetonitrile
Protocol: In table 1, the log P values were determined in accordance with EEC Directive 79/831 Annex V.A8 by HPLC (High Performance Liquid Chromatography) on a reversed-phase column (C 18), using the method described below:
Temperature: 40° C.; Mobile phases: 0.1% aqueous formic acid and acetonitrile; linear gradient from 10% acetonitrile to 90% acetonitrile.
Calibration was carried out using unbranched alkan-2-ones (comprising 3 to 16 carbon atoms) with known log P values (determination of the log P values by the retention times using linear interpolation between two successive alkanones). lambda-max-values were determined using UV-spectra from 200 nm to 400 nm and the peak values of the chromatographic signals.

Septoria tritici = assay: In vivo preventive test on Septoria tritici (wheat); details: preventive spray, 500 ppm of active ingredient, grading 24 days after contamination
Protocol: Wheat plants (“Scipion” variety), sown in starter cups on a 50/50 peat soil pozzolana substrate and grown at 22° C., are treated at the 1 leaf stage (10 cm height) by spraying with the active ingredient prepared as described above. Plants, used as controls, are treated with the mixture of acetone/tween/DMSO/water not containing the active material. After 24 hours, the plants are contaminated by spraying the leaves with an aqueous suspension of cryopreserved Septoria tritici spores (500 000 spores per mL). The contaminated wheat plants are incubated for 72 hours at 18° C. and at 100% relative humidity, and then for 21 days at 90% relative humidity. Grading (% of efficacy) is carried out 24 days after the contamination, in comparison with the control plants.

Sphaerotheca fuliginea = assay: In vivo preventive test on Sphaerotheca fuliginea (powdery mildew on cucurbits); details: gherkin plants, preventive spray, 500 ppm of active ingredient, grading 12 days after contamination
Protocol: Gherkin plants (“Vert petit de Paris” variety), sown in starter cups on a 50/50 peat soil-pozzolana substrate and grown at 24° C., are treated at the Z11 cotyledon stage by spraying with the active ingredient prepared as described above. Plants, used as controls, are treated with the mixture of acetone/tween/DMSO/water not containing the active material. After 24 hours, the plants are contaminated by spraying the cotyledons with an aqueous suspension of Sphaerotheca fuliginea spores (100 000 spores per mL). The spores are collected from infected plants. The contaminated gherkin plants are incubated at about 20° C. and at 70-80% relative humidity. Grading (% of efficacy) is carried out 12 days after the contamination, in comparison with the control plants.

Pyrenophora teres = assay: In vivo preventive test on Pyrenophora teres (barley); details: preventive spray (DMF/alkylaryl polyglycol ether), 500 ppm of active ingredient, evaluated 7-9 days after inoculation
Protocol: (§1) Solvent: 49 parts by weight of N,N-dimethylformamide Emulsifier: 1 part by weight of alkylaryl polyglycol ether To produce a suitable preparation of active compound, 1 part by weight of active compound is mixed with the stated amounts of solvent and emulsifier, and the concentrate is diluted with water to the desired concentration. To test for preventive activity, young plants are sprayed with the preparation of active compound at the stated rate of application. One day after this treatment, the plants are inoculated with an aqueous spore suspension of Pyrenophora teres. The plants remain for 48 hours in an incubation cabinet at 22° C. and a relative atmospheric humidity of 100%. Then the plants are placed in a greenhouse at a temperature of approximately 20° C. and a relative atmospheric humidity of approximately 80%.

Alternaria brassicae = assay: In vivo preventive test on Alternaria brassicae (leaf spot on radish); details: preventive spray, 500 ppm of active ingredient, grading 6 days after contamination
Protocol: Radish plants (“Pernod Clair” variety), sown in starter cups on a 50/50 peat soil pozzolana substrate and grown at 17° C., are treated at the cotyledon stage by spraying with the active ingredient prepared as described above. Plants, used as controls, are treated with the mixture of acetone/tween/DMSO/water not containing the active material. After 24 hours, the plants are contaminated by spraying the cotyledons with an aqueous suspension of Alternaria brassicae spores (50 000 spores per mL). The spores are collected from a 15-day-old culture. The contaminated radish plants are incubated at 20° C. and at 100% relative humidity. Grading (% of efficacy) is carried out 6 days after the contamination, in comparison with the control plants.

Botrytis cinerea = assay: In vivo preventive test on Botrytis cinerea (cucumber); details: preventive spray (DMF/alkylaryl polyglycol ether), 500 ppm of active ingredient, evaluated 5-6 days after inoculation
Protocol: (§2) Solvent: 49 parts by weight of N,N-dimethylformamide Emulsifier: 1 part by weight of alkylaryl polyglycol ether To produce a suitable preparation of active compound, 1 part by weight of active compound is mixed with the stated amounts of solvent and emulsifier, and the concentrate is diluted with water to the desired concentration. To test for preventive activity, young plants are sprayed with the preparation of active compound at the stated rate of application. One day after this treatment, the plants are inoculated with an aqueous spore suspension of Botrytis cinerea. The plants remain for two days in an incubation cabinet at approximately 22° C. and a relative atmospheric humidity of 100%. Then the plants are placed in an incubation cabinet at approximately 14° C. and a relative atmospheric humidity of 96%.

Leptosphaeria nodorum = assay: In vivo preventive test on Leptosphaeria nodorum (wheat); details: preventive spray, 500 ppm of active ingredient, evaluated 7-9 days after inoculation
Protocol: as §1, with “sprayed with a preparation of” for “sprayed with the preparation of”, “suspension of Leptosphaeria nodorum. The plants” for “suspension of Pyrenophora teres. The plants”, “of approximately 22° C. and” for “of approximately 20° C. and”, “of approximately 90%.” for “of approximately 80%.”

Alternaria solani = assay: In vivo preventive test on Alternaria solani (tomato); details: preventive spray, 500 ppm of active ingredient, evaluated 7 days after inoculation
Protocol: as §2, with “Alternaria solani.” for “Botrytis cinerea.”, “one day” for “two days”, “20°” for “14°”

Row | Structure (SMILES) | logP [1] | Efficacy (Uromyces appendiculatus) [%] | Efficacy (Puccinia recondita) [%] | Efficacy (Septoria tritici) [%] | Efficacy (Sphaerotheca fuliginea) [%] | Efficacy (Pyrenophora teres) [%] | Efficacy (Alternaria brassicae) [%] | Efficacy (Botrytis cinerea) [%] | Efficacy (Leptosphaeria nodorum) [%] | Efficacy (Alternaria solani) [%]
1 | C[Si](C)(CNC(=O)c1cccnc1C(F)(F)F)c1ccccc1 [Example 2] | 2.92 | 100 | 88 | 100 | 83 | – | – | – | – | –
2 | C[Si](C)(CN(C(=O)c1nccnc1C(F)(F)F)C1CC1)c1ccccc1F [Example 14] | 4.18 | 84 | 98 | 93 | 98 | 100 | 95 | – | – | –
3 | CCc1ccccc1[Si](C)(C)CN(C(=O)c1cccnc1C(F)(F)F)C1CC1 [Example 20] | 4.51 | – | 88 | 93 | 100 | 100 | 75 | – | – | –
4 | C[Si](C)(CN(C(=O)c1nccnc1C(F)(F)F)C1CC1)c1ccccc1Cl [Example 26] | 4.56 | – | 92 | 100 | 93 | 95 | – | 99 | 80 | –
5 | C[Si](C)(CN(C(=O)c1nccnc1C(F)(F)F)C1CC1)c1cccc(Cl)c1 [Example 32] | 4.56 | – | – | – | – | 95 | – | 94 | 90 | 89
6 | C[Si](C)(CN(C(=O)c1cccnc1C(F)F)C1CC1)c1cccc(Cl)c1 [Example 34] | 3.87 | – | – | – | – | 100 | – | 85 | 80 | 89
7 | CC[Si](C)(CN(C(=O)c1cccnc1C(F)F)C1CC1)c1ccccc1Cl (centres unmarked) [Example 36] | 4.21 | – | 81 | 90 | 94 | – | 90 | – | – | –
8 | CC[Si](C)(CN(C(=O)c1nccnc1C(F)(F)F)C1CC1)c1ccccc1Cl (centres unmarked) [Example 44] | 4.95 | – | 75 | 86 | 94 | 93 | 75 | – | – | –
9 | C[Si](C)(CN(C(=O)c1cccnc1C(F)(F)F)C1CC1)c1cc(F)ccc1Cl [Example 48] | 4.34 | – | 88 | 93 | 98 | 97 | 75 | – | – | –
10 | C[Si](C)(CN(C(=O)c1cccnc1Cl)C1CC1)c1cc(F)ccc1Cl [Example 50] | 3.99 | – | 75 | – | 98 | 97 | 75 | – | – | –
11 | C[Si](C)(CN(C(=O)c1nccnc1C(F)(F)F)C1CC1)c1cccc2ccccc12 [Example 72] | 4.77 | – | – | – | – | 95 | – | – | 80 | 89

Second part, led by results:

Row | logP [1] | Structure (SMILES) | Efficacy (Uromyces appendiculatus) [%] | Efficacy (Puccinia recondita) [%] | Efficacy (Septoria tritici) [%] | Efficacy (Sphaerotheca fuliginea) [%] | Efficacy (Pyrenophora teres) [%] | Efficacy (Alternaria brassicae) [%] | Efficacy (Botrytis cinerea) [%] | Efficacy (Leptosphaeria nodorum) [%] | Efficacy (Alternaria solani) [%]
12 | 4.04 | C[Si](C)(CN(C(=O)c1cccnc1C(F)F)C1CC1)c1cccc2ccccc12 [Example 74] | – | – | – | – | 95 | – | – | 70 | 78
13 | 4.80 | C[Si](C)(CN(C(=O)c1nccnc1C(F)(F)F)C1CC1)c1ccc2ccccc2c1 [Example 77] | – | – | – | – | 100 | – | 95 | 95 | 78
14 | 4.11 | C[Si](C)(CN(C(=O)c1cccnc1C(F)F)C1CC1)c1ccc2ccccc2c1 [Example 79] | – | – | – | – | 95 | – | 70 | 90 | 89
15 | 3.94 | C[Si](C)(CN(C(=O)c1nccnc1C(F)(F)F)C1CC1)c1ccsc1 [Example 86] | – | – | – | – | 90 | – | 80 | – | 75
16 | 3.80 | C[Si](C)(Cc1ccccc1)CN(C(=O)c1cccnc1C(F)F)C1CC1 [Example 92] | – | – | – | – | 90 | – | 98 | 80 | 78
17 | 4.44 | C[Si](C)(Cc1ccccc1)CN(C(=O)c1nccnc1C(F)(F)F)C1CC1 [Example 93] | – | – | – | – | 70 | – | 100 | 80 | 75
18 | 4.82 | C[Si](C)(Cc1ccccc1Cl)CN(C(=O)c1nccnc1C(F)(F)F)C1CC1 [Example 99] | – | – | – | – | 70 | – | – | 70 | –
19 | 4.82 | C[Si](C)(Cc1cccc(Cl)c1)CN(C(=O)c1nccnc1C(F)(F)F)C1CC1 [Example 105] | – | – | – | – | 70 | – | 93 | – | –
